Legend:
[1] = tested on: NOS2 (inducible nitric oxide synthase) gene; experiment: NOS2 gene expression in MSU-induced ADTC5 cells (qPCR); format: cell-based, mouse; settings: extract 2 mg/ml, fucoxanthin 1 ppm, normalized to β-actin
Protocol: Next, the cells were treated with monosodium urate (MSU) (0.125 mg/ml, in medium) to induce uric acid crystallization. Cells were divided into three groups: Group 1 was treated with Ascophyllum nodosum extract extracted for 120 minutes (2 mg/ml, in medium); group 2 was treated with fucoxanthin (1 ppm, in medium); group 3 was untreated (the control group). […] Next, reverse transcription was performed using a SuperScript™ reverse transcription kit (Invitrogen). The NOS2 (inducible nitric oxide synthase) gene was quantified using the ABI StepOnePlus™ System (Applied Biosystems), and β-actin was used as a reference gene for normalizing each sample. It is known that accumulation of uric acid crystals in the joints causes inflammation in joint cavities, which leads to the increase of NOS2 gene expression in chondrocytes. Therefore, NOS2 gene expression levels were used to evaluate the degree of inflammation of cells caused by uric acid crystallization. […] Statistical analysis was performed by Student's t-test (Microsoft Excel software).

[2] = biological target: xanthine oxidase (Homo sapiens, UniProt P47989); experiment: Evaluation of the inhibition of xanthine oxidase activity; format: biochemical; settings: extract extracted for 120 minutes; fucoxanthin at the same concentration as the extract
Protocol: 50 μL of the test sample, 35 μL of phosphate buffer (70 mM, pH 7.5) and 30 μL of xanthine oxidase (0.02 units/mL) were mixed and shaken, and allowed to stand at room temperature for 15 minutes. Then, 60 μL of xanthine (150 μM) was added and allowed to react at room temperature for 30 minutes; the reaction was then stopped by the addition of 100 μL of the HCl (1N), followed by measuring absorbance at 290 nm. The inhibitory effect of the test sample against xanthine oxidase activity was evaluated and compared with the control group.

xanthine oxidase, sequence (P47989 whole entry, species assumed): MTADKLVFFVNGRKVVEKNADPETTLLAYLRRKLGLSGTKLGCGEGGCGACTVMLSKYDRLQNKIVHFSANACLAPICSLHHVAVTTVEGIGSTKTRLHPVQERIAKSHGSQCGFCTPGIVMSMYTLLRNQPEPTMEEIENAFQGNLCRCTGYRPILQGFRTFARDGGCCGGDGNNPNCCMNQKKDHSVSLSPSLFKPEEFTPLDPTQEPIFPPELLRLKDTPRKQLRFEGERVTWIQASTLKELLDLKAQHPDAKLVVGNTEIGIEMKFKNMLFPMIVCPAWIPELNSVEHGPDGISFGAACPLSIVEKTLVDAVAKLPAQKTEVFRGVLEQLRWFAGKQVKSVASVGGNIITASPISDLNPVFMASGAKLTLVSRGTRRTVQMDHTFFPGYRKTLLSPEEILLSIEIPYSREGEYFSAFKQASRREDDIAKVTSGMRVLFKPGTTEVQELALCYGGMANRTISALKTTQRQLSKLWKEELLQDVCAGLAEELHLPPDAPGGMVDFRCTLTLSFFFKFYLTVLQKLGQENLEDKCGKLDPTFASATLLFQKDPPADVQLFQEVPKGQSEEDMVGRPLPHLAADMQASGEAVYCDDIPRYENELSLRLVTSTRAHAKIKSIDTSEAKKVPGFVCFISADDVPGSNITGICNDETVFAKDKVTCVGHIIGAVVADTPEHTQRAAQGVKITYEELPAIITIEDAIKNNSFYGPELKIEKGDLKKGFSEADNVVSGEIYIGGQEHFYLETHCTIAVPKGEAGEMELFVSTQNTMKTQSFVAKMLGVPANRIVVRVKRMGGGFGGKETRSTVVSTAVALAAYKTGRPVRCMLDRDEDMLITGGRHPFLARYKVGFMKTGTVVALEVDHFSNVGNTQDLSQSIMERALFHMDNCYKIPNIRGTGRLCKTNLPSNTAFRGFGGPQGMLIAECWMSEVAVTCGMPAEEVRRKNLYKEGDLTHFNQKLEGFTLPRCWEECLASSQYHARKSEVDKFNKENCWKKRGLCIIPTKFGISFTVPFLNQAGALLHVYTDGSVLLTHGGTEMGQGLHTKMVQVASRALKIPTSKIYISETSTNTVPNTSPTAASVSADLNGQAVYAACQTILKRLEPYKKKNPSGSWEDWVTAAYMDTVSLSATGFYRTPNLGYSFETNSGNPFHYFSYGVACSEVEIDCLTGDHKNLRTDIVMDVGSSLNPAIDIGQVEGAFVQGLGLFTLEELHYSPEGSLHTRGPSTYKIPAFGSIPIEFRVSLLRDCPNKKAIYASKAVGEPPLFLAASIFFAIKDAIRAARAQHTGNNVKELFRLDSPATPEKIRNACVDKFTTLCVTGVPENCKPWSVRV

CC(=O)O[C@H]1CC(C)(C)C(=C=C/C(C)=C/C=C/C(C)=C/C=C/C=C(C)/C=C/C=C(\C)C(=O)C[C@@]23O[C@]2(C)C[C@@H](O)CC3(C)C)[C@](C)(O)C1 [fucoxanthin]
NOS2 gene expression level (MSU-induced group expressed as 1) ([1]; ADTC5 cells co-treated with MSU 0.125 mg/ml for 24 hours): 0.24 | NOS2 gene expression level (MSU-induced group expressed as 1) ([1]; ADTC5 cells co-treated with MSU 0.125 mg/ml for 48 hours): 0.12 | inhibition rate against xanthine oxidase [2]: 44%

Reference: US20170340598A1, “Method of Reducing Uric Acid with Fucoxanthin-Containing Composition” (TCI Co., Ltd., priority 2016, published 2017)
